Test results: PubChem BioAssay (NCI)
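Cells were grown in 96-well plates and exposed to each compound for 48 hours at five concentrations; endpoints were interpolated linearly between bracketing concentrations, or set to the highest concentration if not reached. GI50 marks 50% less growth. TGI marks complete inhibition of growth.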

How the values were obtained:
Test in all cases: NCI tumour cell line growth inhibition, 48 h
786-0 renal = system: 786-0 renal
A498 renal = system: A498 renal
A549 NSCLC = system: A549 NSCLC
ACHN renal = system: ACHN renal
BT-549 breast = system: BT-549 breast
CAKI-1 renal = system: CAKI-1 renal
CCRF-CEM leukemia = system: CCRF-CEM leukemia
COLO 205 colon = system: COLO 205 colon
DU-145 prostate = system: DU-145 prostate
EKVX NSCLC = system: EKVX NSCLC
HCC-2998 colon = system: HCC-2998 colon
HCT-116 colon = system: HCT-116 colon
HCT-15 colon = system: HCT-15 colon
HL-60(TB) leukemia = system: HL-60(TB) leukemia
HOP-62 NSCLC = system: HOP-62 NSCLC
HOP-92 NSCLC = system: HOP-92 NSCLC
HS 578T breast = system: HS 578T breast
HT29 colon = system: HT29 colon
IGROV1 ovarian = system: IGROV1 ovarian
K-562 leukemia = system: K-562 leukemia
KM12 colon = system: KM12 colon
LOX IMVI melanoma = system: LOX IMVI melanoma
M14 melanoma = system: M14 melanoma
MALME-3M melanoma = system: MALME-3M melanoma
MCF7 breast = system: MCF7 breast
MDA-MB-231 breast = system: MDA-MB-231 breast
MDA-MB-435 = system: MDA-MB-435
MOLT-4 leukemia = system: MOLT-4 leukemia
NCI-H226 lung = system: NCI-H226 lung
NCI-H23 lung = system: NCI-H23 lung
NCI-H460 lung = system: NCI-H460 lung
NCI-H522 lung = system: NCI-H522 lung
NCI/ADR-RES ovarian = system: NCI/ADR-RES ovarian
OVCAR-3 ovarian = system: OVCAR-3 ovarian
OVCAR-4 ovarian = system: OVCAR-4 ovarian
OVCAR-5 ovarian = system: OVCAR-5 ovarian
OVCAR-8 ovarian = system: OVCAR-8 ovarian
PC-3 prostate = system: PC-3 prostate
RPMI-8226 leukemia = system: RPMI-8226 leukemia
RXF 393 renal = system: RXF 393 renal
SF-268 CNS = system: SF-268 CNS
SF-295 CNS = system: SF-295 CNS
SF-539 CNS = system: SF-539 CNS
SK-MEL-2 melanoma = system: SK-MEL-2 melanoma
SK-MEL-28 melanoma = system: SK-MEL-28 melanoma
SK-MEL-5 melanoma = system: SK-MEL-5 melanoma
SK-OV-3 ovarian = system: SK-OV-3 ovarian
SN12C renal = system: SN12C renal
SNB-19 CNS = system: SNB-19 CNS
SNB-75 CNS = system: SNB-75 CNS
SW-620 colon = system: SW-620 colon
T-47D breast = system: T-47D breast
TK-10 renal = system: TK-10 renal
U251 CNS = system: U251 CNS
UACC-257 melanoma = system: UACC-257 melanoma
UACC-62 melanoma = system: UACC-62 melanoma
UO-31 renal = system: UO-31 renal

## COC1C(CO)OC(n2c3ccccc3c3c4c(c5c6ccccc6[nH]c5c32)C(=O)NC4=O)C(OC(=O)C(N)CCCCN)C1O (centres undefined)
786-0 renal
  GI50: 111 nM
  TGI: 3300 nM
A498 renal
  GI50: 5 nM
  TGI: 230 nM
A549 NSCLC
  GI50: 962 nM
  TGI: 9040 nM
ACHN renal
  GI50: 22.6 nM
  TGI: 169 nM
BT-549 breast
  GI50: 165 nM
  TGI: 2480 nM
CAKI-1 renal
  GI50: 23.2 nM
  TGI: 65.5 nM
CCRF-CEM leukemia
  GI50: 38.7 nM
  TGI: 2830 nM
COLO 205 colon
  GI50: 96.3 nM
  TGI: 5670 nM
DU-145 prostate
  GI50: 168 nM
  TGI: 3210 nM
EKVX NSCLC
  GI50: 592 nM
  TGI: 3150 nM
HCC-2998 colon
  GI50: 173 nM
  TGI: 1500 nM
HCT-116 colon
  GI50: 83.4 nM
  TGI: 50000 nM
HCT-15 colon
  GI50: 1920 nM
  TGI: 9530 nM
HL-60(TB) leukemia
  GI50: 5.92 nM
  TGI: 59.7 nM
HOP-62 NSCLC
  GI50: 144 nM
  TGI: 2400 nM
HOP-92 NSCLC
  GI50: 35.3 nM
  TGI: 735 nM
HS 578T breast
  GI50: 299 nM
  TGI: 2260 nM
HT29 colon
  GI50: 357 nM
  TGI: 12900 nM
IGROV1 ovarian
  GI50: 102 nM
  TGI: 2930 nM
K-562 leukemia
  GI50: 30.8 nM
  TGI: 8990 nM
KM12 colon
  GI50: 52.9 nM
  TGI: 599 nM
LOX IMVI melanoma
  GI50: 5 nM
  TGI: 35.1 nM
M14 melanoma
  GI50: 132 nM
  TGI: 3230 nM
MALME-3M melanoma
  GI50: 24.5 nM
  TGI: 157 nM
MCF7 breast
  GI50: 79.6 nM
  TGI: 5450 nM
MDA-MB-231 breast
  GI50: 50.4 nM
  TGI: 1010 nM
MDA-MB-435
  GI50: 123 nM
  TGI: 1430 nM
MOLT-4 leukemia
  GI50: 56 nM
  TGI: 13300 nM
NCI-H226 lung
  GI50: 37.1 nM
  TGI: 291 nM
NCI-H23 lung
  GI50: 200 nM
  TGI: 1530 nM
NCI-H460 lung
  GI50: 1060 nM
  TGI: 3780 nM
NCI-H522 lung
  GI50: 15.7 nM
  TGI: 440 nM
NCI/ADR-RES ovarian
  GI50: 1400 nM
  TGI: 21900 nM
OVCAR-3 ovarian
  GI50: 144 nM
  TGI: 1160 nM
OVCAR-4 ovarian
  GI50: 593 nM
  TGI: 5710 nM
OVCAR-5 ovarian
  GI50: 386 nM
  TGI: 2800 nM
OVCAR-8 ovarian
  GI50: 119 nM
  TGI: 6970 nM
PC-3 prostate
  GI50: 116 nM
  TGI: 2580 nM
RPMI-8226 leukemia
  GI50: 1330 nM
  TGI: 11600 nM
RXF 393 renal
  GI50: 53.7 nM
  TGI: 815 nM
SF-268 CNS
  GI50: 23.2 nM
  TGI: 721 nM
SF-295 CNS
  GI50: 165 nM
  TGI: 1950 nM
SF-539 CNS
  GI50: 17.3 nM
  TGI: 139 nM
SK-MEL-2 melanoma
  GI50: 505 nM
  TGI: 1710 nM
SK-MEL-28 melanoma
  GI50: 165 nM
  TGI: 2260 nM
SK-MEL-5 melanoma
  GI50: 42.6 nM
  TGI: 125 nM
SK-OV-3 ovarian
  GI50: 225 nM
  TGI: 3910 nM
SN12C renal
  GI50: 23.7 nM
  TGI: 56.2 nM
SNB-19 CNS
  GI50: 88.9 nM
  TGI: 14200 nM
SNB-75 CNS
  GI50: 156 nM
  TGI: 3660 nM
SW-620 colon
  GI50: 10.8 nM
  TGI: 1670 nM
T-47D breast
  GI50: 14.5 nM
  TGI: 187 nM
TK-10 renal
  GI50: 371 nM
  TGI: 1460 nM
U251 CNS
  GI50: 12.8 nM
  TGI: 311 nM
UACC-257 melanoma
  GI50: 437 nM
  TGI: 5300 nM
UACC-62 melanoma
  GI50: 28.1 nM
  TGI: 185 nM
UO-31 renal
  GI50: 215 nM
  TGI: 903 nM
